This is an account of results in patent US20110250134A1, “SUSTAINED RELEASE NITRIC OXIDE FROM LONG LIVED CIRCULATING NANOPARTICLES” (priority 2010, published 2011).

The series can be described thus: Total NO released (NO agents decomposition). Format: physicochemical. How it is done:
Total NO released (NO agents decomposition). Gaseous NO levels were measured using a chemiluminescent NO analyzer (Sievers NO analyzer, Model 280i, Boulder, Colo.). […] Solutions were continuously bubbled with pure nitrogen (0.2 L/min). The gas phase was collected into the NO analyzer for a minute every 10 min., and the excess flow was evacuated through an underwater seal (1 cm H2O).

As for `NCCCN(CCCN)/[N+]([O-])=N/O` [DPTA NONOate, Dipropylenetriamine NONOate], the NO liberated experimentally came out at 9.4 µmol/mg. For `NCCN(CCN)/[N+]([O-])=N/O` [DETA NONOate, Diethylenetriamine NONOate], the NO liberated experimentally is 10.7 μmols of NO/mg.
